# Non-standard residues stand in square brackets, D forms with d. Residues, ends and D or L forms follow the SMILES beside them. Primed or numbered codes have the meaning given here. *: point of attachment. Palmitoyl = CCCCCCCCCCCCCCCC(=O)*; Tic = O=C(O)[C@@H]1Cc2ccccc2CN1; PEG8′ = not defined here
# Legend:
# [1] = biological target: T1, CMKLR1 (Homo sapiens, UniProt Q99788); test: β-Arrestin recruitment, Link-Light CMKLR1 stable cell line; type: cell-based; settings: 1 hr treatment; for Emax: read-out: Max Efficacy (% 10 μM s-Stable chem9)
# T1 construct: expressed in transfected cells; host or cells: HEK293
# T1 sequence (Q99788 1-373): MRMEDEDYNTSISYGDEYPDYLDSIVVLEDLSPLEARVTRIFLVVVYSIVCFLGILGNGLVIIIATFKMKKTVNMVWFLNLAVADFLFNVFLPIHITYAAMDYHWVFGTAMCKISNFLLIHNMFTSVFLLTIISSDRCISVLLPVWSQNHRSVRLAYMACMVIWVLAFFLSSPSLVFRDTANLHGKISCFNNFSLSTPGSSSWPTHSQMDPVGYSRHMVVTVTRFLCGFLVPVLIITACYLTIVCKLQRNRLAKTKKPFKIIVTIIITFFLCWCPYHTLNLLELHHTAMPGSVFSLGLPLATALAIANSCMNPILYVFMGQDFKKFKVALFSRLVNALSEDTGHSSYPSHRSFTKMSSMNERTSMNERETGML
# [2] = biological target: T1, CMKLR1; test: Luciferase reporter assay of CMKLR1 canonical Gαi signal transduction in HEK293 cells transiently expressing recombinant CMKLR1 (+/- wash, +/- albumin); type: cell-based; settings: for EC50: no wash
# [3] = test system: chronic constriction injury (CCI) mouse model; test: Chronic constriction injury (CCI) mouse model of neuropathic pain; type: in vivo; settings: for effect on neuropathic pain: CCI mouse model; for time after compound administration over which mechanical hypersensitivity is blocked / efficacy kept: intrathecal administration
# Protocol: Following intrathecal administration of compound, 1-Stable Chem (C16-stable Chem9) blocked mechanical hypersensitivity for more than 24 hours after compound administration (FIG. 6A). In contrast, Resolvin E1 lost efficacy by 3 hours post injection (FIG. 6B).
# One emerging treatment strategy to treat neuropathic pain is to target modulators of the neuroinflammatory process which contributes to neuropathic pain. We have previously identified a palmitoylated stable analog (“C16-Stable Chem9”) derived from a 9 amino acid fragment of chemerin. […] Extending from these observations, we hypothesized that the pharmacological properties of our peptide may be further optimized by modifying the lipid anchor. We have chemically synthesized a series of Chem 9 analogs with various lipid tails (e.g. cholesterol, oleic acid, linolenic acid). In vitro pharmacological characterization of each peptide was done using HEK293 cells transiently expressing the recombinant CMKLR1. […] Furthermore, selected lipid tails bias binding to either albumin (thus enhancing systemic delivery) or to the cellular membrane (which favors locally restricted function). The lipidated CMKLR1 ligands have promise as modulators of neuropathic pain. In addition, our findings illustrate an approach where serial addition/substitution of lipid anchors can be applied to optimize the pharmacological as well as pharmacokinetic properties of many peptide ligands.
# [4] = test system: mouse model of corneal inflammation; test: Thermal cautery mouse model of corneal inflammation; type: in vivo
# Protocol: FIG. 15 is a set of flow cytometry graphs showing that cell infiltration decreases after topical application of oTTx-010 compared to vehicle. Flow cytometry of pulled corneas was performed on day 3 post cautery. Mice were treated topically three times a day with 10 μL of oTTx-010 or vehicle for 3 days. 10 μL of […] oTTx-010 in 1×PBS solution=4.2 micrograms oTTx-010/dose.
# Thermal cautery is a mouse model of corneal inflammation (see Arch Ophthalmol. 2003 Hamrah et al.).
# [5] = test system: DED mice; test: Dry eye disease (DED) mouse model (scopolamine and desiccating stress); type: in vivo
# Excerpt: FIG. 11 is a graph showing that corneal fluorescein staining scores were lower in DED mice treated with oTTx-010. NEI scoring system: 0-15.
# FIG. 13 is a set of flow cytometry graphs showing that percentage of activated immune cells (MHCII+) in the draining lymph node of oTTx-010 treated mice decreased compared to vehicle controls.
# FIG. 14 is a set of flow cytometry graphs showing that T regulatory cells increased in the draining lymph node of oTTx-010 treated mice compared to vehicle (showing more tolerance). Flow cytometry of draining lymph nodes gated on CD45+ CD3+ and CD4+ (T cells).
# In the DED mouse model, scopolamine is injected 3 times/day to decrease tear production in mice. Fenestrated cages and 4 fans around the cage working 24 hours/day are used to induce desiccating stress and dry eyes. oTTx-010 is administered to the mice to assess treatment efficacy. Vehicle is administered as control.
molecule,measurement,setting,value
CCCC(=O)NCCOCCOCCOCCOCCOCCOCCOCCOCCC(=O)N[C@@H](CCCCN)C(=O)NCC(=O)NCC(=O)N[C@H](Cc1ccc(O)cc1)C(=O)N[C@@H](Cc1ccccc1)C(=O)N[C@@H](CC(C)C)C(=O)N1CCC[C@H]1C(=O)N[C@H](CO)C(=O)N[C@@H](CCC(N)=O)C(=O)N[C@@H](Cc1ccccc1)C(=O)N[C@H](C)C(=O)N1Cc2ccccc2C[C@H]1C(=O)N[C@@H](CO)C(=O)O [C4] (HELM PEPTIDE1{[CCCC(=O)[*:2]].[O=C(CCOCCOCCOCCOCCOCCOCCOCCOCCN[*:1])[*:2]].K.G.G.[dY].F.L.P.[dS].Q.F.[dA].[Tic].S}$$$$V2.0; N-terminus and C-terminus assumed),Emax,[1],89.7%
CCCCCCCCCC(=O)NCCOCCOCCOCCOCCOCCOCCOCCOCCC(=O)N[C@@H](CCCCN)C(=O)NCC(=O)NCC(=O)N[C@H](Cc1ccc(O)cc1)C(=O)N[C@@H](Cc1ccccc1)C(=O)N[C@@H](CC(C)C)C(=O)N1CCC[C@H]1C(=O)N[C@H](CO)C(=O)N[C@@H](CCC(N)=O)C(=O)N[C@@H](Cc1ccccc1)C(=O)N[C@H](C)C(=O)N1Cc2ccccc2C[C@H]1C(=O)N[C@@H](CO)C(=O)O [C10] (HELM PEPTIDE1{[CCCCCCCCCC(=O)[*:2]].[O=C(CCOCCOCCOCCOCCOCCOCCOCCOCCN[*:1])[*:2]].K.G.G.[dY].F.L.P.[dS].Q.F.[dA].[Tic].S}$$$$V2.0; N-terminus and C-terminus assumed),Emax,[1],98.3%
CCCC/C=C\CCCCCCCC(=O)NCCOCCOCCOCCOCCOCCOCCOCCOCCC(=O)N[C@@H](CCCCN)C(=O)NCC(=O)NCC(=O)N[C@H](Cc1ccc(O)cc1)C(=O)N[C@@H](Cc1ccccc1)C(=O)N[C@@H](CC(C)C)C(=O)N1CCC[C@H]1C(=O)N[C@H](CO)C(=O)N[C@@H](CCC(N)=O)C(=O)N[C@@H](Cc1ccccc1)C(=O)N[C@H](C)C(=O)N1Cc2ccccc2C[C@H]1C(=O)N[C@@H](CO)C(=O)O [C14:1] (HELM PEPTIDE1{[CCCC/C=C\CCCCCCCC(=O)[*:2]].[O=C(CCOCCOCCOCCOCCOCCOCCOCCOCCN[*:1])[*:2]].K.G.G.[dY].F.L.P.[dS].Q.F.[dA].[Tic].S}$$$$V2.0; N-terminus and C-terminus assumed),Emax,[1],124%
CCCCCC/C=C\CCCCCCCC(=O)NCCOCCOCCOCCOCCOCCOCCOCCOCCC(=O)N[C@@H](CCCCN)C(=O)NCC(=O)NCC(=O)N[C@H](Cc1ccc(O)cc1)C(=O)N[C@@H](Cc1ccccc1)C(=O)N[C@@H](CC(C)C)C(=O)N1CCC[C@H]1C(=O)N[C@H](CO)C(=O)N[C@@H](CCC(N)=O)C(=O)N[C@@H](Cc1ccccc1)C(=O)N[C@H](C)C(=O)N1Cc2ccccc2C[C@H]1C(=O)N[C@@H](CO)C(=O)O [C16:1] (HELM PEPTIDE1{[CCCCCC/C=C\CCCCCCCC(=O)[*:2]].[O=C(CCOCCOCCOCCOCCOCCOCCOCCOCCN[*:1])[*:2]].K.G.G.[dY].F.L.P.[dS].Q.F.[dA].[Tic].S}$$$$V2.0; N-terminus and C-terminus assumed),Emax,[1],154%
CCCCCCCCCCCCCCCC(=O)NCCOCCOCCOCCOCCOCCOCCOCCOCCC(=O)N[C@@H](CCCCN)C(=O)NCC(=O)NCC(=O)N[C@H](Cc1ccc(O)cc1)C(=O)N[C@@H](Cc1ccccc1)C(=O)N[C@@H](CC(C)C)C(=O)N1CCC[C@H]1C(=O)N[C@H](CO)C(=O)N[C@@H](CCC(N)=O)C(=O)N[C@@H](Cc1ccccc1)C(=O)N[C@H](C)C(=O)N1Cc2ccccc2C[C@H]1C(=O)N[C@@H](CO)C(=O)O [C16] (HELM PEPTIDE1{[CCCCCCCCCCCCCCCC(=O)[*:2]].[O=C(CCOCCOCCOCCOCCOCCOCCOCCOCCN[*:1])[*:2]].K.G.G.[dY].F.L.P.[dS].Q.F.[dA].[Tic].S}$$$$V2.0; N-terminus and C-terminus assumed),potency and duration of activity (anchors to the cell membrane),[2]; previously identified analog,high potency and long-term activity
same,wash resistance (an index of membrane adherence) in the presence of BSA,"[2]; with BSA, FIGS. 8A-8B",decreased
same,Emax,[1],165%
same,effect on neuropathic pain,[3]; listed as C16-stable Chem9,abrogate neuropathic pain
same,effect on neuropathic pain,[3]; listed as palm sC9,alleviated neuropathic pain
same,time after compound administration over which mechanical hypersensitivity is blocked / efficacy kept,[3],more than 24 hours
CCCCCCCC/C=C\CCCCCCCC(=O)NCCOCCOCCOCCOCCOCCOCCOCCOCCC(=O)N[C@@H](CCCCN)C(=O)NCC(=O)NCC(=O)N[C@H](Cc1ccc(O)cc1)C(=O)N[C@@H](Cc1ccccc1)C(=O)N[C@@H](CC(C)C)C(=O)N1CCC[C@H]1C(=O)N[C@H](CO)C(=O)N[C@@H](CCC(N)=O)C(=O)N[C@@H](Cc1ccccc1)C(=O)N[C@H](C)C(=O)N1Cc2ccccc2C[C@H]1C(=O)N[C@@H](CO)C(=O)O [C18:1] (HELM PEPTIDE1{[CCCCCCCC/C=C\CCCCCCCC(=O)[*:2]].[O=C(CCOCCOCCOCCOCCOCCOCCOCCOCCN[*:1])[*:2]].K.G.G.[dY].F.L.P.[dS].Q.F.[dA].[Tic].S}$$$$V2.0; N-terminus and C-terminus assumed),Emax,[1],160%
CC/C=C\C/C=C\C/C=C\CCCCCCCC(=O)NCCOCCOCCOCCOCCOCCOCCOCCOCCC(=O)N[C@@H](CCCCN)C(=O)NCC(=O)NCC(=O)N[C@H](Cc1ccc(O)cc1)C(=O)N[C@@H](Cc1ccccc1)C(=O)N[C@@H](CC(C)C)C(=O)N1CCC[C@H]1C(=O)N[C@H](CO)C(=O)N[C@@H](CCC(N)=O)C(=O)N[C@@H](Cc1ccccc1)C(=O)N[C@H](C)C(=O)N1Cc2ccccc2C[C@H]1C(=O)N[C@@H](CO)C(=O)O [C18:3] (HELM PEPTIDE1{[CC/C=C\C/C=C\C/C=C\CCCCCCCC(=O)[*:2]].[O=C(CCOCCOCCOCCOCCOCCOCCOCCOCCN[*:1])[*:2]].K.G.G.[dY].F.L.P.[dS].Q.F.[dA].[Tic].S}$$$$V2.0; N-terminus and C-terminus assumed),activity after washing in the presence of BSA,"[2]; with BSA, FIGS. 8C-8D",further reduced
same,Emax,[1],110%
"CC[C@@H](O)/C=C/C=C\C[C@@H](O)/C=C/C=C/C=C\[C@@H](O)CCCC(=O)O [Resolvin E1, reference compound]",effect on neuropathic pain,[3],abrogate neuropathic pain
same,time after compound administration over which mechanical hypersensitivity is blocked / efficacy kept,[3],≤ 3 h
"CC(C)C[C@H](NC(=O)[C@H](Cc1ccccc1)NC(=O)[C@H](N)Cc1ccc(O)cc1)C(=O)N1CCC[C@H]1C(=O)N[C@H](CO)C(=O)N[C@@H](CCC(N)=O)C(=O)N[C@@H](Cc1ccccc1)C(=O)N[C@H](C)C(=O)N1Cc2ccccc2C[C@H]1C(=O)N[C@@H](CO)C(=O)O [none, reference compound] (HELM PEPTIDE1{[dY].F.L.P.[dS].Q.F.[dA].[Tic].S}$$$$V2.0)",EC50,"[2]; no BSA, read-out: EC50 (no wash0)",35.2 nM
same,EC50,"[2]; with BSA, read-out: EC50 (BSA) (no wash)",5.1 nM
same,EC50,[1],31.9 nM
same,Emax,[1],100%
palmitate-PEG8KGG-H2N-Y*-F-L-P-S*-Q-F-A*-Tic-S-COOH ({Palmitoyl-PEG8′}-KGG[dY]FLP[dS]QF[dA][Tic]S-OH) [oTTx-010],cell infiltration (flow cytometry of corneas),"[4]; day 3 post cautery, topical three times a day 10 μL for 3 days, compared to vehicle",decreases
same,inflammation in the eye,[4]; topical,decrease inflammation in the eye
same,corneal fluorescein staining scores,"[5]; NEI scoring system: 0-15, compared with vehicle",lower
same,blink reflex as a sign of ocular irritation,[5]; compared to vehicle treated group,significantly lower
same,T regulatory cells in the draining lymph node,"[5]; flow cytometry gated on CD45+ CD3+ and CD4+, compared to vehicle",increased
same,percentage of activated immune cells (MHCII+) in the draining lymph node,"[5]; flow cytometry, compared to vehicle controls",decreased
same,clinical symptoms and signs and immune tolerance in DED,[5]; topical,decrease clinical symptoms and signs and improve immune tolerance
